{"source": "PubChem BioAssay (NCI)", "test_in_all_cases": "growth of human tumour cells (NCI), 48 h", "key": {"EKVX NSCLC": {"tested_on": "EKVX NSCLC"}, "HOP-62 NSCLC": {"tested_on": "HOP-62 NSCLC"}, "OVCAR-8 ovarian": {"tested_on": "OVCAR-8 ovarian"}, "HCT-15 colon": {"tested_on": "HCT-15 colon"}, "SR leukemia": {"tested_on": "SR leukemia"}, "SK-MEL-28 melanoma": {"tested_on": "SK-MEL-28 melanoma"}, "MOLT-4 leukemia": {"tested_on": "MOLT-4 leukemia"}, "T-47D breast": {"tested_on": "T-47D breast"}, "M14 melanoma": {"tested_on": "M14 melanoma"}, "A498 renal": {"tested_on": "A498 renal"}, "PC-3 prostate": {"tested_on": "PC-3 prostate"}, "UACC-257 melanoma": {"tested_on": "UACC-257 melanoma"}, "OVCAR-3 ovarian": {"tested_on": "OVCAR-3 ovarian"}, "NCI/ADR-RES ovarian": {"tested_on": "NCI/ADR-RES ovarian"}, "MCF7 breast": {"tested_on": "MCF7 breast"}, "MDA-MB-231 breast": {"tested_on": "MDA-MB-231 breast"}, "NCI-H522 lung": {"tested_on": "NCI-H522 lung"}, "RXF 393 renal": {"tested_on": "RXF 393 renal"}, "OVCAR-4 ovarian": {"tested_on": "OVCAR-4 ovarian"}, "HOP-92 NSCLC": {"tested_on": "HOP-92 NSCLC"}, "OVCAR-5 ovarian": {"tested_on": "OVCAR-5 ovarian"}, "HCT-116 colon": {"tested_on": "HCT-116 colon"}, "K-562 leukemia": {"tested_on": "K-562 leukemia"}, "UACC-62 melanoma": {"tested_on": "UACC-62 melanoma"}, "NCI-H23 lung": {"tested_on": "NCI-H23 lung"}, "NCI-H226 lung": {"tested_on": "NCI-H226 lung"}, "U251 CNS": {"tested_on": "U251 CNS"}, "KM12 colon": {"tested_on": "KM12 colon"}, "LOX IMVI melanoma": {"tested_on": "LOX IMVI melanoma"}, "SNB-75 CNS": {"tested_on": "SNB-75 CNS"}}, "note": "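Following 48 hours of exposure in 96-well plates, responses at five concentrations were used to interpolate endpoints linearly. Abbreviation: GI50, concentration required for 50% inhibition of growth. TGI: concentration producing complete growth inhibition.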", "data": [{"smiles": "C#C[C@]1(O)CC[C@H]2[C@@H]3CC=C4c5sc(Nc6ccc(C(F)(F)F)cn6)nc5CC[C@]4(C)[C@H]3CC[C@@]21C", "values": [{"measurement": "TGI", "setting": "EKVX NSCLC", "value": 8.58, "unit": "µM"}, {"measurement": "GI50", "setting": "HOP-62 NSCLC", "value": 2.32, "unit": "µM"}, {"measurement": "TGI", "setting": "HOP-62 NSCLC", "value": 11.3, "unit": "µM"}, {"measurement": "GI50", "setting": "OVCAR-8 ovarian", "value": 9.96, "unit": "µM"}, {"measurement": "TGI", "setting": "OVCAR-8 ovarian", "value": "> 100", "unit": "µM"}, {"measurement": "GI50", "setting": "HCT-15 colon", "value": 1.72, "unit": "µM"}, {"measurement": "TGI", "setting": "HCT-15 colon", "value": 4.96, "unit": "µM"}, {"measurement": "GI50", "setting": "SR leukemia", "value": 2.47, "unit": "µM"}, {"measurement": "TGI", "setting": "SR leukemia", "value": 20.4, "unit": "µM"}, {"measurement": "GI50", "setting": "SK-MEL-28 melanoma", "value": 1.39, "unit": "µM"}, {"measurement": "TGI", "setting": "SK-MEL-28 melanoma", "value": 2.93, "unit": "µM"}, {"measurement": "GI50", "setting": "MOLT-4 leukemia", "value": 2.62, "unit": "µM"}, {"measurement": "TGI", "setting": "MOLT-4 leukemia", "value": 13.7, "unit": "µM"}, {"measurement": "GI50", "setting": "T-47D breast", "value": 3.58, "unit": "µM"}, {"measurement": "TGI", "setting": "T-47D breast", "value": 18.4, "unit": "µM"}, {"measurement": "GI50", "setting": "M14 melanoma", "value": 2.57, "unit": "µM"}, {"measurement": "TGI", "setting": "M14 melanoma", "value": 9.92, "unit": "µM"}, {"measurement": "GI50", "setting": "A498 renal", "value": 2.43, "unit": "µM"}, {"measurement": "TGI", "setting": "A498 renal", "value": 5.45, "unit": "µM"}, {"measurement": "GI50", "setting": "PC-3 prostate", "value": 1.98, "unit": "µM"}, {"measurement": "TGI", "setting": "PC-3 prostate", "value": "> 100", "unit": "µM"}, {"measurement": "GI50", "setting": "UACC-257 melanoma", "value": 3.85, "unit": "µM"}, {"measurement": "TGI", "setting": "UACC-257 melanoma", "value": 18.4, "unit": "µM"}, {"measurement": "GI50", "setting": "OVCAR-3 ovarian", "value": 4.68, "unit": "µM"}, {"measurement": "TGI", "setting": "OVCAR-3 ovarian", "value": 35.1, "unit": "µM"}, {"measurement": "GI50", "setting": "NCI/ADR-RES ovarian", "value": 3.76, "unit": "µM"}, {"measurement": "TGI", "setting": "NCI/ADR-RES ovarian", "value": 46, "unit": "µM"}, {"measurement": "GI50", "setting": "MCF7 breast", "value": 1.96, "unit": "µM"}, {"measurement": "TGI", "setting": "MCF7 breast", "value": 4.49, "unit": "µM"}, {"measurement": "GI50", "setting": "MDA-MB-231 breast", "value": 1.88, "unit": "µM"}, {"measurement": "TGI", "setting": "MDA-MB-231 breast", "value": 4.44, "unit": "µM"}, {"measurement": "GI50", "setting": "NCI-H522 lung", "value": 3.97, "unit": "µM"}, {"measurement": "TGI", "setting": "NCI-H522 lung", "value": 16.2, "unit": "µM"}, {"measurement": "GI50", "setting": "RXF 393 renal", "value": 0.723, "unit": "µM"}, {"measurement": "TGI", "setting": "RXF 393 renal", "value": 2.54, "unit": "µM"}, {"measurement": "GI50", "setting": "OVCAR-4 ovarian", "value": 3.65, "unit": "µM"}, {"measurement": "TGI", "setting": "OVCAR-4 ovarian", "value": 31, "unit": "µM"}, {"measurement": "GI50", "setting": "HOP-92 NSCLC", "value": 5.41, "unit": "µM"}, {"measurement": "TGI", "setting": "HOP-92 NSCLC", "value": 26.1, "unit": "µM"}, {"measurement": "GI50", "setting": "OVCAR-5 ovarian", "value": 4.48, "unit": "µM"}, {"measurement": "TGI", "setting": "OVCAR-5 ovarian", "value": 23.8, "unit": "µM"}, {"measurement": "GI50", "setting": "HCT-116 colon", "value": 3.22, "unit": "µM"}, {"measurement": "TGI", "setting": "HCT-116 colon", "value": 13.7, "unit": "µM"}, {"measurement": "GI50", "setting": "K-562 leukemia", "value": 2.73, "unit": "µM"}, {"measurement": "TGI", "setting": "K-562 leukemia", "value": "> 100", "unit": "µM"}, {"measurement": "GI50", "setting": "UACC-62 melanoma", "value": 1.95, "unit": "µM"}, {"measurement": "TGI", "setting": "UACC-62 melanoma", "value": 4.5, "unit": "µM"}, {"measurement": "GI50", "setting": "NCI-H23 lung", "value": 3.08, "unit": "µM"}, {"measurement": "TGI", "setting": "NCI-H23 lung", "value": 15.5, "unit": "µM"}, {"measurement": "GI50", "setting": "NCI-H226 lung", "value": 3.91, "unit": "µM"}, {"measurement": "TGI", "setting": "NCI-H226 lung", "value": 19.9, "unit": "µM"}, {"measurement": "GI50", "setting": "U251 CNS", "value": 1.72, "unit": "µM"}, {"measurement": "TGI", "setting": "U251 CNS", "value": 11.3, "unit": "µM"}, {"measurement": "GI50", "setting": "KM12 colon", "value": 4.49, "unit": "µM"}, {"measurement": "TGI", "setting": "KM12 colon", "value": 18.4, "unit": "µM"}, {"measurement": "GI50", "setting": "LOX IMVI melanoma", "value": 1.84, "unit": "µM"}, {"measurement": "TGI", "setting": "LOX IMVI melanoma", "value": 4.25, "unit": "µM"}, {"measurement": "GI50", "setting": "SNB-75 CNS", "value": 1.27, "unit": "µM"}, {"measurement": "TGI", "setting": "SNB-75 CNS", "value": 12.7, "unit": "µM"}]}]}
